# Assay results from US7125546B2, “Polymeric micelle containing cisplatin enclosed therein and use thereof” (Toudai TLO, Ltd., priority 2000, dated 2006).
# “And” between values parts separate entries of the source, which are not always exact repeats. Equal entries are not always repeated.
# Legend:
# [1] = Blood plasma platinum concentration and accumulation of platinum in tumor and principal organs after caudate vein administration to tumor-bearing mice
# Experimental: Evaluated were a change in a blood plasma platinum concentration and a change with the passage of time in accumulation of platinum in the principal organs observed when free CDDP and the CDDP-encapsulating micelle were administered from a caudate vein to a C57BL6/N mouse (n=4, male, 6 ages in week) in which Louis pulmonary cancer was subcutaneously transplanted to a hypogastric region, and the results thereof are shown in FIG. 4.
# [2] = tested on: Louis pulmonary cancer; assay: Antitumor effect and weight change after single caudate vein administration to mice with subcutaneously transplanted Louis pulmonary cancer
# Experimental: (§1) In FIG. 5, calculated were duration integrations (up to 17 days since drug treatment) of relative values in a change in a tumor volume and a weight change on a zero day, and the ratios of the drug-treated group to the drug-non-treat group in the values were shown as an antitumor effect and a weight change respectively. Further, the drug was administered once from a caudate vein to a normal C57BL6/N mouse (n=4, male, 6 ages in week) to evaluate a urea nitrogen (BUN) value in blood plasma after 6 days. […] The ratio of the drug-treated group to the drug-non-treat group in this BUN value was calculated as well, and the relative BUN value to the CDDP-equivalent dosage was shown in FIG. 5(C).
# [3] = Urea nitrogen (BUN) value in blood plasma 6 days after single caudate vein administration to normal mice (index for nephrotoxicity); settings: normal mouse, 6 days after single administration, ratio to non-treated group
# Experimental: as §1
# [4] = 0–24 hours, tissue platinum concentration-time curve
substance,measurement,setting,value
cis-Diaminedichloroplatinum (II) [CDDP],Kidney AUC/tumor AUC,[1]; [4],3.9 and 7.7
same,Liver AUC/tumor AUC,[1]; [4],2.6 and 2.7
same,Muscle AUC/tumor AUC,[1]; [4],0.13 and 0.17
same,Spleen AUC/tumor AUC,[1]; [4],0.31 and 0.43
same,accumulation of platinum in a kidney,[1]; immediately after administration (about 15 minutes),high accumulation immediately after administration
same,toxic death,[2]; 12 mg/kg,one mouse out of 3 mice
same,weight change,"[2]; mouse, in vivo",reduction in the weight
same,antitumor effect,"[2]; single caudate vein administration, tumor volume integration up to 17 days, ratio to non-treated group",increase in the antitumor effect
same,relative BUN value,[3],rise in the BUN value
